Reference: US20060052404A1, “Pharmaceutical formulations comprising substituted xanthine compounds” (priority 2001, published 2006)

Assays:
[1] = test system: human epithelial cell line expressing the CFTR-ΔF508 mutation; conditions: cells having the CFTR-ΔF508 mutation; cited from earlier work
[2] = CPX absorption profile in rats, water vs corn oil formulation, single oral gavage; format: in vivo; conditions: rat, 1.4 mg/kg single oral gavage, during the course of the experiment
Protocol: Experimental—This study was designed to determine the pharmacokinetics of CPX bioavailability in blood plasma following a single oral administration by oral gavage to male Sprague-Dawley rats. The CPX compound was suspended in either a corn oil or water formulation and administered once via oral gavage at 10 ml/kg of rat weight to two groups of male Sprague-Dawley rats.
The rats were not fasted prior to blood collection. Approximately 0.4 ml of whole blood was collected from each animal into heparinized tubes via puncture of the orbital sinus under 70% CO2/30% O2 anesthesia. Approximately 0.2 ml of plasma was separated by centrifugation and analyzed for CPX concentration using high performance liquid chromatography (HPLC) with mass spectrometric detection. Following the completion of blood collection, all surviving animals were euthanized by carbon dioxide overdose.
Rat plasma CPX concentration as a function of time (in hours) using the two formulations was measured. Each rat in this experiment (n=10) received a 1.4 mg/kg CPX dose, which was equivalent to a 100 mg dose. Ten rats were used at each time point to generate a mean CPX concentration value.

CFTR-ΔF508 NBF-1 = CFTR-ΔF508 NBF-1 (Homo sapiens, UniProt P13569, DEL508-508); conditions: cited from earlier work
isolated CFTR channels = isolated CFTR channels (Homo sapiens, UniProt P13569); conditions: in vitro lipid bilayers; cited from earlier work
[3] = CPX absorption profiles of four suspension formulations in dogs, single oral dose; format: in vivo, male Beagle dogs; conditions: dog, 30 mg/kg oral
Protocol: Experimental—This study was designed to determine the relative bioavailability of a single oral CPX dose when administered by gavage to male Beagle dogs. The CPX dosages was administered in a single 30 mg/kg oral dose in four different suspension formulations. These suspension formulations were: • 1) xanthan gum (homogenized), • 2) sodium carboxymethylcellulose [NaCMC] (homogenized), • 3) sodium carboxymethylcellulose [NaCMC] (non-homogenized), and • 4) corn oil (homogenized).
Each formulation contained CPX at a nominal concentration of 60 mg/gram of suspension. […]
Whole blood samples were collected (approx. 3 ml/sample) by jugular venipuncture into sodium heparin-containing collection tubes. […] The whole blood was centrifuged to isolate plasma, and concentrations of CPX in the plasma at these time intervals were determined using high performance liquid chromatography (HPLC) with mass spectrometric detection, with a lower quantitation limit of 1 ng/ml.
The following pharmacokinetic parameters were determined for each experimental CPX formulation: • Cmax—maximum analyte concentration in the plasma, ng/ml • Tmax—time of maximum analyte concentration in the plasma • T1/2—terminal half-life of the drug • AUClast—area under the curve (AUC) from time 0 to the last measurable concentration. […] Expressed as ng·h/ml AUC(0∞)—area under the curve from time 0 to infinity (also written AUCinf or AUC∞)

[4] = Solubility of CPX in solvents tested; format: physicochemical; conditions: any of the solvents tested, despite use of co-solvents
Excerpt: This EXAMPLE describes the CPX formulations used in the present invention. Adequate solubility of CPX was unattainable in any of the solvents tested, even despite the use of co-solvents. This insolubility necessitated the use of the suspension and capsule formulations, as described below. One formulation was left non-homogenized to study the effect of homogenization on bioavailability.

CFTR-ΔF508 = CFTR-ΔF508 (Homo sapiens, UniProt P13569, DEL508-508); conditions: cited from earlier work
[5] = Mutagenicity and adverse side effects of oral doses in animal model systems; format: in vivo; conditions: oral doses to rat, guinea pig, mouse or dog model systems
NBF-1 region of CFTR = NBF-1 region of CFTR (Homo sapiens, UniProt P13569); conditions: cited from earlier work
A1 adenosine receptor = target: T1, A1 adenosine receptor (Homo sapiens, UniProt P30542); conditions: cited from earlier work
T1 sequence (P30542 1-326): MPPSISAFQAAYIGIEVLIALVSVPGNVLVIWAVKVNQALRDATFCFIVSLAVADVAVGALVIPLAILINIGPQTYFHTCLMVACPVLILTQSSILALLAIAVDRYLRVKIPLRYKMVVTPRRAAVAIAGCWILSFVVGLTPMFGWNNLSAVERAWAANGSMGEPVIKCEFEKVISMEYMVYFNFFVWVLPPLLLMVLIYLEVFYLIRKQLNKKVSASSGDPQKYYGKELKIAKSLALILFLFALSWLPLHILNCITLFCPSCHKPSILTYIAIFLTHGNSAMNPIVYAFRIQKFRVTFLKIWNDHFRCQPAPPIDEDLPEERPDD

[6] = test system: cell derived from a cystic fibrosis patient; conditions: cited from earlier work
[7] = Adverse side effects of oral doses in human subjects; format: in vivo; conditions: oral doses to human subjects

Sequence of NBF-1 region of CFTR (P13569 423-646 limits assumed): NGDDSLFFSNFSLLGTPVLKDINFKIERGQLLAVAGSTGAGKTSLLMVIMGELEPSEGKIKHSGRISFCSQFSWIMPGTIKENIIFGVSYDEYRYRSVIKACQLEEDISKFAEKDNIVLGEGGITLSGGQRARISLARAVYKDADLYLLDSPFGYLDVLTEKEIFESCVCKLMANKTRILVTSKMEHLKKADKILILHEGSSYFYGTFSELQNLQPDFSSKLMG
Sequence of CFTR-ΔF508 NBF-1 (P13569 with tags, fused parts or gaps DEL508-508 limits assumed): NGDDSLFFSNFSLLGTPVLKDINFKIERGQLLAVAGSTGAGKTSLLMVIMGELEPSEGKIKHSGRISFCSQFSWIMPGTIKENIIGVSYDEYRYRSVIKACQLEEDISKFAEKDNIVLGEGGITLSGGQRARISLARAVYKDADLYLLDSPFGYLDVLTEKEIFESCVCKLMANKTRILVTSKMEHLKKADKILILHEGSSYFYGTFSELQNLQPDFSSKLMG
Sequence of CFTR-ΔF508 (P13569 with tags, fused parts or gaps DEL508-508): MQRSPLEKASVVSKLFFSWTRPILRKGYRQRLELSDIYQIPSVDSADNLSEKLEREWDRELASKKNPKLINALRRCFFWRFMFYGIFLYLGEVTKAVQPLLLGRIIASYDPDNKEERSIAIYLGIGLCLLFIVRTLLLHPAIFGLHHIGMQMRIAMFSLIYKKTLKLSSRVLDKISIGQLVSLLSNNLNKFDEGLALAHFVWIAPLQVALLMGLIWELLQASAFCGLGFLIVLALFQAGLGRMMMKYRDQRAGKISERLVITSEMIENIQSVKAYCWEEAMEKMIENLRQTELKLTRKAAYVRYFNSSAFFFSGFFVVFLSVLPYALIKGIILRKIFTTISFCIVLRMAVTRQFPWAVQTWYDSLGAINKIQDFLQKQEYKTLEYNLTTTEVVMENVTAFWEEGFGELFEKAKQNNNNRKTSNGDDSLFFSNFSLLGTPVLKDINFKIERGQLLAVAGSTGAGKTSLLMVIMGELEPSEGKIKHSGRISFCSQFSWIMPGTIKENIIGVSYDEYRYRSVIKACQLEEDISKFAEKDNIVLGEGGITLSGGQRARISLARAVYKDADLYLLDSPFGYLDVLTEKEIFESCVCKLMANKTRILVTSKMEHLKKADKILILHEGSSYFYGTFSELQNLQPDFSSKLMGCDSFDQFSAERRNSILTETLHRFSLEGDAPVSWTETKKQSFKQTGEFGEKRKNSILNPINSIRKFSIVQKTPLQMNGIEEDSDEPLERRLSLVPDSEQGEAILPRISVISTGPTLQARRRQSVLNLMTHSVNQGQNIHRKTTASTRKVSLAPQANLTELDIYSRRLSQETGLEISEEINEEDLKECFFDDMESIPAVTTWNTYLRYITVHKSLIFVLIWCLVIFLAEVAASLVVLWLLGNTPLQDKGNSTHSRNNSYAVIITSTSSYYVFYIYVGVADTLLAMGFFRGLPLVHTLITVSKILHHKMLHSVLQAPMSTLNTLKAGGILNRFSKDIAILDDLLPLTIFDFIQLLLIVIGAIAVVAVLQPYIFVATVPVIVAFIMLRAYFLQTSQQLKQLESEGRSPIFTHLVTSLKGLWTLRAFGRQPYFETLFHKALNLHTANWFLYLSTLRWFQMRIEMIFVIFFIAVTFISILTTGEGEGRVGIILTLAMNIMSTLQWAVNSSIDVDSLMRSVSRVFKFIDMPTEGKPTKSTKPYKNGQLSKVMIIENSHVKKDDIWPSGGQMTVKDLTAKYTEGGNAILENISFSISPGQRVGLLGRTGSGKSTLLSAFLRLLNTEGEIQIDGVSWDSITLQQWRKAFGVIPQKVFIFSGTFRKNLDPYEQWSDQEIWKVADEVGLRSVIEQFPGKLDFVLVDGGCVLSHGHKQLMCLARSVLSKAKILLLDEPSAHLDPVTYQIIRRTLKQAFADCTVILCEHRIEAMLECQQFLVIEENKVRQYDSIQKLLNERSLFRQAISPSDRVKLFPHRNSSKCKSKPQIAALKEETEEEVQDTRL
Sequence of isolated CFTR channels (P13569 whole entry): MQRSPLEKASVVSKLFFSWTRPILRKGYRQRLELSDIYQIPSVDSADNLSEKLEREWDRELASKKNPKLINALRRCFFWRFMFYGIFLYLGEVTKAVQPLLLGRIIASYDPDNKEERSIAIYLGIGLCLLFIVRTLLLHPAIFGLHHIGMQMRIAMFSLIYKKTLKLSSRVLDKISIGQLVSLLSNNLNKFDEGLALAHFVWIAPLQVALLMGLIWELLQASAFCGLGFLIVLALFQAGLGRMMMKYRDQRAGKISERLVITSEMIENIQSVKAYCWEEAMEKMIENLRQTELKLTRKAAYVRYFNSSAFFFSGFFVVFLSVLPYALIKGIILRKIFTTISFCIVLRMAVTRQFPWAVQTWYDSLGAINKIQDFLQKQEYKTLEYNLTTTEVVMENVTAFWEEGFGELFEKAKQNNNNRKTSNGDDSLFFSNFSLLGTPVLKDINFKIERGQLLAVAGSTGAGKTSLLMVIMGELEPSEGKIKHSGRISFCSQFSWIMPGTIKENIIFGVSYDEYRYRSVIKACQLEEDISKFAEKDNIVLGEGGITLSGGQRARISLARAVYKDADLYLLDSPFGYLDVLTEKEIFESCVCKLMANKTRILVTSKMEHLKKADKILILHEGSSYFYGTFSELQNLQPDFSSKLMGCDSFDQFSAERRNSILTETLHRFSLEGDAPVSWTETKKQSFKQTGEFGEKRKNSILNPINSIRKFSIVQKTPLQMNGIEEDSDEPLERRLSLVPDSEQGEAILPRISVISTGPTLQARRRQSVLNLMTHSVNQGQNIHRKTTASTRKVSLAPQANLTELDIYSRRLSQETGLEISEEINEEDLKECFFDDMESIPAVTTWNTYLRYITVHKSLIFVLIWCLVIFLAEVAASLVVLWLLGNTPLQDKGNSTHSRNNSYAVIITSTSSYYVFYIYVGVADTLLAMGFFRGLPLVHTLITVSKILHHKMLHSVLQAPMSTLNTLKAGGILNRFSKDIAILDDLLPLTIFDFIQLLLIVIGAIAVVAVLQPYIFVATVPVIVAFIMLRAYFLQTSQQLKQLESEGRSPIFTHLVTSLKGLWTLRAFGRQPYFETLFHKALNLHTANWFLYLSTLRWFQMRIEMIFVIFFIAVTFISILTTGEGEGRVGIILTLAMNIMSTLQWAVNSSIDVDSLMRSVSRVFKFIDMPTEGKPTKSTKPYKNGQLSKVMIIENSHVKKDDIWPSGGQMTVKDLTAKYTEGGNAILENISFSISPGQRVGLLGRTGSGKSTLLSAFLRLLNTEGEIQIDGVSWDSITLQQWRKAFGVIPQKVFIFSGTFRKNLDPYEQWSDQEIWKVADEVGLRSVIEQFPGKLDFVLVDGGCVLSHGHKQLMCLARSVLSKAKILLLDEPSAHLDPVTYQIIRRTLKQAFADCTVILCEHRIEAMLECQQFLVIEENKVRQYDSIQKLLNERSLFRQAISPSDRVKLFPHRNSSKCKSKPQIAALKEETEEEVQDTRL

1,3-dipropyl-7-methylcyclopenthylxanthine [DP-CPX]
chloride efflux [1]: activating chloride ion efflux

Cn1c(=O)c2c(nc(C3CCCCC3)n2C)n(C)c1=O [CHC, cyclohexylcaffeine]
chloride efflux [1]: activating chloride ion efflux

CCCn1c(=O)c2[nH]c(C3CCCC3)nc2n(CCC)c1=O [CPX, 1,3-dipropyl-8-cyclopentylxanthine]
mortality or signs of morbidity [2]: no mortality or signs of morbidity
affinity for CFTR-ΔF508 NBF-1 versus wild-type CFTR NBF-1 (CFTR-ΔF508 NBF-1): greater
activation of isolated CFTR channels (isolated CFTR channels): activates
time of measured peak concentrations of CPX in the plasma after oral dosing [3]: ≤ 5 h
adequate solubility [4]: unattainable
chloride efflux [1]: promotes chloride efflux
intracellular trafficking and maturation of CFTR-ΔF508 (CFTR-ΔF508): enhances
mutagenicity or grossly apparent adverse side effects [5]: does not appear to display any mutagenicity or grossly apparent adverse side effects
binding to the NBF-1 region of CFTR (NBF-1 region of CFTR): binds
A1 adenosine receptor antagonism (A1 adenosine receptor): potent
chloride efflux [6]: activates
apparent adverse side effects [7]: no apparent adverse side effects

C=CCn1c(=O)c2[nH]c(C3CCCCC3)nc2n(CC=C)c1=O [DAX, N,N-diallylcyclohexylxanthine]
chloride efflux [1]: activating chloride ion efflux

CCCn1c(=O)c2[nH]c(-c3ccc(OCC(=O)NCCN)cc3)nc2n(CCC)c1=O [xanthine amino congener]
chloride efflux [1]: activating chloride ion efflux
